Holding throughout (type): cell-based, human
One experiment concerns MM.1S cells. Put plainly: Proliferation of MM cells in a modified Boyden chamber transwell co-culture system with BMSCs. The settings on record: 48 h. The protocol: Proliferation is measured in a modified Boyden chamber transwell system, using 24-well plates with a […] pore size inserts (Costar). BMSCs (4×10^4 cells/well) are plated in the lower chamber, starved, and incubated in an epothilone as described above. MM cells (20×10^4 cells/ml) are then placed in the upper chamber (insert), and [^3H]-thymidine uptake in the individual chambers is measured at 48 h as described above.
MM.1S cells are placed in the upper chamber of a transwell co-culture system in order to preclude direct contact between MM cells and BMSCs, but nonetheless allow for diffusion of humoral factors. Despite the lack of contact between the two cell types, uptake of [^3H]-dT by MM.1S cells incubated with BMSCs is increased by 2.2-fold (p<0.0001) at 48 h.

In experiment [1] the test system is MM cells. In words: Cell cycle analysis (propidium iodide, flow cytometry). As to the method:
MM cells (1×10^6 cells) are cultured in the presence of Epothilone B or DMSO control for 24, 48 and 72 h. Cells are then washed with phosphate buffered saline (PBS), fixed with 70% ethanol, and treated with RNAse (Sigma). Cells are next stained with propidium iodide (PI, 5 μg/mL), and the cell cycle profile is determined using the M software on an Epics flow cytometer (Coulter Immunology, Hialeah, Fla.).

The subject of experiment [2] is MM cells. In words: Proliferation ([3H]-thymidine) and cell viability (MTS) assays. As to the method:
RPMI 8226 and U266 human MM cell lines can be obtained from the American Type Culture Collection (ATCC) of Rockville, Md. Patient derived MM cells are purified from patient BM samples, as described by Y. T. Tai, G. Teoh, Y. Shima, et al in J. Immunol. Methods 235:11, 2000. All human MM cell lines are cultured in RPMI-1640 media (Sigma Chemical, St. Louis, Mo.), containing 10% fetal bovine serum (FBS), 2 mmol/L L-glutamine (L-glut, GIBCO, Grand Island, N.Y.), 100 U/mL penicillin and […] streptomycin (P/S, GIBCO). MM patient cells are >95% CD38+, CD45RA−. […]
MM cells are first starved for 12 h in RPMI-1640 media containing […], and then plated into 96-well microtiter plates (Costar, Cambridge, Mass.), in the presence of drug or DMSO control. […] Proliferation is measured by the incorporation of [^3H]-thymidine (NEN Products, Boston, Mass.). Specifically, cells are pulsed with [^3H]-thymidine (0.5 μCi/well) for the last 6 h of 48 h cultures, harvested onto glass filters with an automatic cell harvester (Cambridge Technology, Cambridge, Mass.), and counted using a LKB Betaplate scintillation counter (Wallac, Gaithersburg, Md.). […] Cells are exposed to the MTS for the last 2 h of 48 h cultures, and absorbance is measured using an ELISA plate reader (Molecular Devices Corp., Sunnyvale, Calif.) at OD of 570 nm.

For the compound `C/C(=C\c1csc(C)n1)[C@@H]1C[C@@H]2O[C@]2(C)CCC[C@H](C)[C@H](O)[C@@H](C)C(=O)C(C)(C)[C@@H](O)CC(=O)O1` [epothilone B], in the experiment on MM.1S cells, the “proliferation of MM.1S cells ([3H]-dT uptake)” value is given as “reduces proliferation of MM.1S cells”. For the same compound, the “cell cycle effect / apoptosis” value with MM cells [1] is “induces G2M arrest in MM cells with subsequent apoptosis”. In addition, the “growth and survival of myeloma cells” value in the experiment on MM cells [2] was “directly inhibit the growth and survival of myeloma cells”.
